“Also recorded” adds a separate entry of the source.
What was measured:
[1] = tested on: Anti-Lymphotoxin-β induced NF-κB luciferase activity; assay: NF-κB luciferase in HeLa cells induced by anti-Lymphotoxin-β receptor; assay type: cell-based; conditions: listed as CID-2858522
Source text: FIG. 1 is a flow chart of screening and counter-screenings for selective inhibitors of antigen-receptor induced NF-κB pathway. A total of 114,889 compounds were screened. From a screen of 53,280 commercially available compounds (left column), 519 hits were obtained, of which 248 reconfirmed using the same primary screening assay. […] From these 11 active compounds, one hit, CID-2858522, inhibited PMA/Ionomycin-induced production of cytokine IL-8 by the HEK293 cell line. CID-2858522 was then characterized (right column). PDB was substituted for PMA to confirm suppression of an alternative PKC activator. Pathway selectivity was assessed using panels of cell lines, starting with HEK293 cells in which each of the remaining NF-κB activation pathways was stimulated, showing inhibition only of PMA/Ionomycin-induced NF-κB reporter gene activity (panel 1). […]

[2] = tested on: phosphorylation of CARMA1; assay: PMA-induced CARMA1 phosphorylation in HEK293 cells (immunoblot); assay type: cell-based; conditions: CID-2858522 4 μM
Description: FIG. 7. CID-285852 inhibits IKKβ phosphorylation induced by PKC activators. (A) HEK293 cells were cultured in 0.5% FBS medium for 24 h and then treated with CID-2858522 (4 μM) or PKC inhibitor, Bisindolylmaleimide I (1 μM) for 2 hrs followed by PMA/Ionomycin (10 ng/mL; 5 ng/mL) for 2 h. Cell lysates were subjected to immunoprecipitation using anti-CARMA1 antibody and analyzed by immunoblotting with anti-phospho-CARMA1 antibody or anti-CARMA1 antibody. (B-E) HEK293 cells were transfected with plasmids encoding myc-CARMA1 in combination with plasmids encoding various other proteins including Caspase-8 (cys287ala) (B), HA-IKK-γ (C), HA-TAK1 (D), and TRAF6 (E). After 36 h. cells were cultured in 0.5% FBS medium for 12 h and then treated with CID-2858522 (4 μM) or Bisindolylmaleimide I (1 μM) for 2 hrs, followed by PMA/Ionomycin treatment (10 ng/mL; 5 ng/mL) for 2 hrs. Cell lysates were immunoprecipated using anti-myc antibody and analyzed by immunoblotting using anti-Caspase8 (B), anti-HA (C,D), or anti-TRAF6 (E) antibodies. […] Cell lysates were normalized for protein content and analyzed by immunoblotting using anti-FLIP and anti-alpha-tubulin antibodies. […] Cell lysates were immunoprecipitated using anti-IKK-β and analyzed by immunoblotting using anti-phospho-IKK-β antibody or anti-IKK-β antibody (as loading control). […]

Cc1cc2nc(NCCCO)n(CC(=O)c3cc(C(C)(C)C)c(O)c(C(C)(C)C)c3)c2cc1C [Compound 1, 2-(2-(3-Hydroxypropylamino)-5,6-dimethyl-1H-benzo[d]imidazol-1-yl)-1-(3,5-di-tert-butyl-4-hydroxyphenyl)ethanone]
suppression of NF-κB luciferase, anti-Lymphotoxin-β in HeLa [1]: failed to inhibit; also recorded: did not suppress
effect on PMA-induced phosphorylation of CARMA1 [2]: no effect

Source: US20090247520A1, “INHIBITORS OF ANTIGEN RECEPTOR-INDUCED NF-kappa B ACTIVATION” (The Burnham Institute for Medical Research, priority 2008, published 2009)
